Measured values reported in ChEMBL document CHEMBL1125013, “Quinazoline antifolate thymidylate synthase inhibitors: 2'-fluoro-N10-propargyl-5,8-dideazafolic acid and derivatives with modifications in the C2 position” (J Med Chem, 1990).

Tests used:
L1210 (R7A) = assay: Concentration required to inhibit 50% growth of L1210 of R7A mutant mouse leukemia cell line was determined; type: functional, cell-based
L1210 [1] = assay: The inhibitory activity was determined on L1210 mouse leukemia cell in presence of thymidine; type: functional; set-up: scale not given: the % may be the effect or the level left
L1210 [2] = assay: Concentration required to inhibit 50% growth of L1210 mouse leukemia cells was determined; type: functional, cell-based
L1210 (1565) = assay: cells; type: functional, cell-based; conditions: Mus musculus
Description: Concentration required to inhibit 50% growth of L1210 /1565 mutant mouse leukemia cell line was determined

Thymidylate synthase = Thymidylate synthase (Mus musculus, UniProt P07607); assay: Concentration required to inhibit 50% activity of Thymidylate synthase was determined
Chain of Thymidylate synthase (P07607 whole entry): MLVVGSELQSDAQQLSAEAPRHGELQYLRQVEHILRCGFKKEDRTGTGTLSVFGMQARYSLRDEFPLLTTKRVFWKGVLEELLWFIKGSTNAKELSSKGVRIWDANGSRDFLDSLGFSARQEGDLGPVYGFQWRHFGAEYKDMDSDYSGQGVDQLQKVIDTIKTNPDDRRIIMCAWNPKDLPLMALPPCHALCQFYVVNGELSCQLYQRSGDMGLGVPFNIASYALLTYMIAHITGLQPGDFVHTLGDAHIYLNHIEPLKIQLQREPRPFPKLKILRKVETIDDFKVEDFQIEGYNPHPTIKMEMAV

Compound | IC50 (L1210 (R7A)) [nM] | Control (L1210 [1]) [%] | IC50 (L1210 [2]) [nM] | IC50 (L1210 (1565)) [nM] | IC50 (Thymidylate synthase) [nM]
C#CCN(Cc1ccc2nc(C)[nH]c(=O)c2c1)c1ccc(C(=O)N[C@@H](CCC(=O)O)C(=O)O)cc1 | 390 | 100 | 85 | 8300 | 
C#CCN(Cc1ccc2nc[nH]c(=O)c2c1)c1ccc(C(=O)N[C@@H](CCC(=O)O)C(=O)O)c(F)c1 | 3800 | 84 | 290 | 1200 | 58
C#CCN(Cc1ccc2nc[nH]c(=O)c2c1)c1ccc(C(=O)N[C@@H](CCC(=O)O)C(=O)O)cc1 | 7500 | 100 | 360 | 4100 | 
C#CCN(Cc1ccc2nc(OC)[nH]c(=O)c2c1)c1ccc(C(=O)N[C@@H](CCC(=O)O)C(=O)O)cc1 | 14000 | 100 | 1900 | 160000 | 
C#CCN(Cc1ccc2nc(CO)[nH]c(=O)c2c1)c1ccc(C(=O)N[C@@H](CCC(=O)O)C(=O)O)c(F)c1 |  | 82 | 1900 | 6000 | 
C#CCN(Cc1ccc2[nH]c(N)nc(=O)c2c1)c1ccc(C(=O)N[C@@H](CCC(=O)O)C(=O)O)cc1 | 41000 | 96 | 3500 | 3600 | 
C#CCN(Cc1ccc2nc(C)[nH]c(=O)c2c1)c1ccc(C(=O)N[C@@H](CCC(=O)O)C(=O)O)c(F)c1 | 110 | 97 | 27 | 2200 | 20
C#CCN(Cc1ccc2nc(N)[nH]c(=O)c2c1)c1ccc(C(=O)N[C@@H](CCC(=O)O)C(=O)O)c(F)c1 | 6200 | 84 | 1100 | 600 | 9
C#CCN(Cc1ccc2nc(OC)[nH]c(=O)c2c1)c1ccc(C(=O)N[C@@H](CCC(=O)O)C(=O)O)c(F)c1 |  | 89 | 1000 | 45000 | 36
